Experimental data reported in patent US20240285554A1, “POLYVINYL ALCOHOL COMPOSITIONS AND METHODS OF MAKING AND USING THEM” (Emanate Biomedical, Inc., priority 2023, published 2024).

Assays:
[1] = test system: oral pathogenic bacteria; details: cited from earlier work
[2] = test system: gram positive bacteria and gram negative bacteria; assay: Zone of Inhibition (ZOI) testing; type: cell-based; details: composition with 0.005%, 0.025%, 0.05%, 0.1%, and 0.15% w/w of CHG
Text: (§1) The CHG concentration of 0.05% w/w was the lowest dose showing strong efficacy against both bacteria and fungus and was therefore selected as the suitable preservative concentration.

[3] = test system: C. albicans ATCC 10231; assay: Antimicrobial efficacy testing (modified AATCC 100 test); type: cell-based, Candida albicans; details: contact time 30 min, study NG17964
Text: as §1

[4] = test system: C. tropicalis ATCC 750; assay: as above; type: cell-based, Candida tropicalis
Text: as §1

[5] = test system: S. aureus ATCC 6538; assay: as above; type: cell-based, Staphylococcus aureus; details: for Log10 Reduction Compared to Control / Percent Reduction Compared to Control / Average CFU/carrier: S. aureus ATCC 6538, study NG17598-A1; for Average CFU/carrier: limit of detection
Text: as §1

[6] = test system: P. aeruginosa ATCC 9027; assay: as above; type: cell-based, Pseudomonas aeruginosa; details: for Log10 Reduction Compared to Control / Percent Reduction Compared to Control / Average CFU/carrier: P. aeruginosa ATCC 9027, study NG17598-A1; for Average CFU/carrier: limit of detection
Text: as §1

[7] = test system: bacteria and fungus; assay: Antimicrobial efficacy, choice of preservative concentration; type: cell-based; details: selected as the suitable preservative concentration
Text: as §1

[8] = test system: C. tropicalis ATCC 750; assay: Antimicrobial efficacy testing (modified AATCC 100 test); type: cell-based, Candida tropicalis; details: for Average CFU/carrier / Log10 Reduction Compared to Control / Percent Reduction Compared to Control: C. tropicalis ATCC 750, contact time 30 min, study NG17964; for efficacy: tested against Candida albicans and Candida tropicalis
[9] = C. tropicalis ATCC 750, CHG Conc 0.05 % w/w, contact time 30 min, study NG17964
[10] = CHG Conc 0.005 % w/w, contact time 30 min
[11] = CHG Conc 0.1 % w/w, contact time 60 min
[12] = CHG Conc 0.1 % w/w, contact time 24 hrs

## [H]/N=C(\N/C(=N/[H])NCCCCCCNC(=N)NC(=N)Nc1ccc(Cl)cc1)Nc1ccc(Cl)cc1 [Chlorhexidine, chlorhexidine]
[1]; against oral pathogenic bacteria
  MIC: 0.0125 % w/v
[1]; at 10 minutes
  MBC: 0.5 % w/v

## N=C(NCCCCCCNC(=N)NC(=N)Nc1ccc(Cl)cc1)NC(=N)Nc1ccc(Cl)cc1.O=C(O)[C@H](O)[C@@H](O)[C@H](O)[C@H](O)CO.O=C(O)[C@H](O)[C@@H](O)[C@H](O)[C@H](O)CO [CHG]
[2]
  effect in Zone of Inhibition (ZOI) testing: showed inhibitory effects
[3]; CHG Conc 0.005 % w/w
  Average CFU/carrier: 1.00E+05 CFU/carrier
  Log10 Reduction Compared to Control: 0.25
  Percent Reduction Compared to Control: 43.52%
[3]; CHG Conc 0.05 % w/w
  Average CFU/carrier: 2.48E+02 CFU/carrier
  Log10 Reduction Compared to Control: 2.86
  Percent Reduction Compared to Control: 99.86%
[3]; CHG Conc 0.1 % w/w
  Average CFU/carrier: 7.50E+00 CFU/carrier
  Log10 Reduction Compared to Control: 4.37
  Percent Reduction Compared to Control: 99.996%
[4]; [9]
  Log10 Reduction Compared to Control: >4.46
  Percent Reduction Compared to Control: >99.997%
[4]; C. tropicalis ATCC 750, CHG Conc 0.05 % w/w, contact time 30 min, study NG17964, limit of detection
  Average CFU/carrier: <5.00E+00^1 CFU/carrier
[4]; tested against Candida albicans and Candida tropicalis, CHG 0.05% w/w
  efficacy: 99.997%
[5]; [10]
  Log10 Reduction Compared to Control: >4.40
  Percent Reduction Compared to Control: >99.996%
  Average CFU/carrier: <5.00E+00^1 CFU/carrier
[5]; [11]
  Log10 Reduction Compared to Control: >4.57
  Percent Reduction Compared to Control: >99.997%
  Average CFU/carrier: <5.00E+00^1 CFU/carrier
[5]; [12]
  Log10 Reduction Compared to Control: >4.58
  Percent Reduction Compared to Control: >99.997%
  Average CFU/carrier: <5.00E+00^1 CFU/carrier
[5]; Staphylococcus aureus, CHG 0.05% w/w, after 30 min contact time
  reduction of the concentration of microorganisms: more than 99.99%
[5]; Staphylococcus aureus, CHG 0.1% w/w, after 60 min and 24 hour contact time
  reduction of the concentration of the microorganisms: more than 99.99%
[6]; [10]
  Log10 Reduction Compared to Control: >4.43
  Percent Reduction Compared to Control: >99.996%
  Average CFU/carrier: <5.00E+00^1 CFU/carrier
[6]; [11]
  Log10 Reduction Compared to Control: >4.53
  Percent Reduction Compared to Control: >99.996%
  Average CFU/carrier: <5.00E+00^1 CFU/carrier
[6]; [12]
  Log10 Reduction Compared to Control: >4.70
  Percent Reduction Compared to Control: >99.998%
  Average CFU/carrier: <5.00E+00^1 CFU/carrier
[6]; Pseudomonas aeruginosa, CHG 0.05% w/w, after 30 min contact time
  reduction of the concentration of microorganisms: more than 99.99%
[6]; Pseudomonas aeruginosa, CHG 0.1% w/w, after 60 min and 24 hour contact time
  reduction of the concentration of the microorganisms: more than 99.99%
[7]
  lowest dose showing strong efficacy against both bacteria and fungus: 0.05 % w/w
[8]; CHG Conc 0.005 % w/w
  Average CFU/carrier: 2.70E+04 CFU/carrier
  Log10 Reduction Compared to Control: 0.73
  Percent Reduction Compared to Control: 81.38%
[8]; CHG Conc 0.1 % w/w
  Log10 Reduction Compared to Control: >4.46
  Percent Reduction Compared to Control: >99.997%
[8]; CHG Conc 0.1 % w/w, limit of detection
  Average CFU/carrier: <5.00E+00^1 CFU/carrier
[8]; CHG 0.005% w/w
  efficacy: 81.38%
[8]; CHG 0.1% w/w
  efficacy: 99.997%
